From patent publication US8017350B2, “Glimepiride- and insulin-induced glycosylphosphatidylinositol-specific phospholipase C regulation” (Sanofi-Aventis Deutschland GmbH, priority 2004, dated 2011)
pIC50: −log10 of the molar value.

Experiments:
[1] = test system: pp59Lyn and IRS-1 in isolated rat adipocytes; test: tyrosine phosphorylation of pp59Lyn and IRS-1; format: cell-based
Description: Polypeptides separated by SDS-PAGE were transferred to polyvinylidene difluoride membranes using the semidry procedure as described in “Müller, G. et al., (2001) Mol. Cell. Biol. 21: 4553-4567”. Washed membranes were incubated with anti-caveolin-1 (1:2000), anti-pp59^Lyn (1:1250), anti-aP (1:500), anti-5′-Nuc (1:750) and anti-IRS-1 (1:2000) antibodies for 4 h at 15° C. Washed membranes were incubated with horseradish peroxidase-coupled secondary goat anti-mouse (1:2000) or goat anti-rabbit IgG (1:4000) antibodies. Labeled proteins were visualized by enhanced chemiluminescence.
FIG. 7: Effect of GPI-2350 on the glimepiride/insulin-induced activation of signaling proteins. Isolated rat adipocytes were treated (5 min, 37° C.) without or with GPI-2350 (Panels A, 50 μM; Panels B, increasing conc.) and then incubated (120 min, 37° C.) in the absence or presence of insulin (10 nM) or glimepiride (20 μM). IRS-1 and pp59^Lyn were immunoprecipitated from the defatted postnuclear infranatant (see Materials and Methods) and solubilized combined hc/lcDIGs, respectively, and then immunoblotted for phosphotyrosine. […]

[2] = molecular target: T1, GPI-PLC (T. brucei) (Trypanosoma brucei brucei, UniProt P09194); test: GPI-PLC (T. brucei) assay, human placental aP substrate, TX-114 partitioning; format: biochemical
T1 construct: purchased Oxford Glycosystems (Oxford, UK)
Description: GPI-PLD (rat serum) was assayed according to “Hari et al. (1997) Biochim. Biophys. Acta 1355: 293-302” by incubation with 10 μl of human placental aP solution (100 U/ml in 10 mM Hepes/NaOH, pH 7.0, 150 mM NaCl) in 100 μl of 200 mM Tris/maleate (pH 7.0) and 1% Nonidet P-40 for 10 min at 37° C. and subsequent termination of the reaction by addition of 0.4 ml of ice-cold stop buffer (10 mM Hepes/NaOH, pH 7.0, 150 mM NaCl, 0.1 mM MgCl2 and 0.01 mM zinc acetate). GPI-PLC (T. brucei) was assayed as described in “Mensa-Wilmot et al. (1995) Methods Enzymol. 250: 641-655” by incubation with 5 μl of human placental aP solution (see above) in 50 μl of 50 mM Tris/HCl (pH 8.0), 0.25% Nonidet P-40 and 5 mM EDTA for 30 min at 37° C. and subsequent termination of the reaction by addition of 0.45 ml of stop buffer. PI-PLC (B. cereus) and adipocyte GPI-PLC (5-25 μg plasma membranes or hc/lcDIGs) were assayed by incubation with 10 μl of bovine erythrocyte acetylcholinesterase (AChE) solution (12 U/ml in 10 mM Tris/HCl, pH 7.4, 144 mM NaCl, 0.1% TX-100) in 100 μl of 20 mM Hepes/KOH (pH 7.8), 144 mM NaCl, 0.1% TX-100, 0.2 mM MgCl2 for 1 h at 25° C. and subsequent termination by adding 5 μl of glacial acetic acid and then 0.4 ml of 10 mM Tris/HCl (pH 7.4), 144 mM NaCl. Each reaction mixture was subjected to TX-114 partitioning (see below).
Pelleted hc/lcDIGs (10-50 μg protein) or (G)PI-PLC reaction mixtures (0.5 ml) were separated into amphiphilic and hydrophilic proteins using partitioning between TX-114-enriched and depleted phases according to “Bordier, C., (1981) J. Biol, Chem. […]” by suspending in 1 ml of ice-cold TX-114 (1%), 25 mM Tris/HCl (pH 7.4), 144 mM NaCl or mixing with 0.5 ml of ice-cold TX-114 (2%), respectively. After incubation for 1 h on ice, the mixture was layered onto a cushion of 0.4 ml of 0.25 M sucrose and 25 mM Tris/HCl (pH 7.4) on ice. Phase separation was induced by warming up to 37° C. and subsequent centrifugation (10,000×g, 1 min). After re-extraction of the lower TX-114-enriched phase, aliquots of the pooled upper TX-114-depleted phase were measured for 5′-Nuc, aP and AChE activity or precipitated (15 polyethylene glycol 4000) for SDS-PAGE analysis.
Table 1: GPI-PLC of hcDIGs from rat adipocytes, GPI-PLC from T. brucei and PI-PLC from B. cereus were incubated with solubilized and partially purified bovine erythrocyte AChE or human placental aP in the absence or presence of increasing concentrations (0.05 μM-1 mM) of the inhibitors indicated under appropriate conditions (see Materials and Methods). Cleavage rate was calculated from the amount of hydrophilic AChE and aP activity recovered with the TX-114-depleted phase upon TX-114 partitioning. Means+SD from at least 3 independent incubations with partitioning/enzyme assays in quadruplicate are given. n.a., not applicable.
Purified (G)PI-PLC/D from B. cereus, rat serum and T. brucei as well as total plasma membranes (PM) and hc/lcDIGs prepared from isolated rat adipocytes were incubated (10 min, 30° C.) with increasing concentrations of GPI-2350 and then assayed for amphiphilic-to-hydrophilic conversion of AChE and aP by TX-114 partitioning (see Materials and Methods). The lipolytic activity was calculated as % of the control reaction in the absence of GPI-2350 (set at 100%). Means+SD of at least 4 independent incubations with AChE and aP activity measurements in triplicate each are given.

[3] = molecular target: phospholipase A2 (honey bee venom) (Apis mellifera, UniProt P00630); format: biochemical; details: 50 μM
Chain of phospholipase A2 (honey bee venom) (P00630 34-167 limits assumed): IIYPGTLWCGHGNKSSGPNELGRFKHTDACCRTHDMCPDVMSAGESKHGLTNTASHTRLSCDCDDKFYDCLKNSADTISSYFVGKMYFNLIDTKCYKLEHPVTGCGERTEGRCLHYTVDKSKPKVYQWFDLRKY

T1 sequence (P09194 whole entry): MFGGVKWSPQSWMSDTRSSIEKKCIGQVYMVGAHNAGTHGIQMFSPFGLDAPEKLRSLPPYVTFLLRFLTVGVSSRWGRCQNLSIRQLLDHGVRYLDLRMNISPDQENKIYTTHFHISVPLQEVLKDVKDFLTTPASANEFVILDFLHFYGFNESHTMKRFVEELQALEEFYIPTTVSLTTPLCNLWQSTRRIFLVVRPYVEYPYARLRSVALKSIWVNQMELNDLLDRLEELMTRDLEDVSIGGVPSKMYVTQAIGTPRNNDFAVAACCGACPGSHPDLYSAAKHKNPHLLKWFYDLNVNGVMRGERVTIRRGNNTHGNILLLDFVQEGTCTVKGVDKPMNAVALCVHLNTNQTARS

## CCCCCCCCCCCCP1(=O)O[C@@H]2[C@H](O)[C@@H](O)[C@H](O)[C@@H](O)[C@@H]2O1 (stereo partly shown) [GPI-2350, myo-inositol-1,2-cyclo-dodecylphosphonic acid]
[1]
  effect on insulin-induced tyrosine phosphorylation of IRS-1: only marginally reduced
[1]; 50 μM
  effect on tyrosine phosphorylation of pp59Lyn and IRS-1 in response to glimepiride: almost complete blockade
[2]; IC50, Table 1, inhibitor 0.05 μM-1 mM
  pIC50: 5.30 to 5.70
[2]; apparent IC50, FIG. 2
  pIC50: 5.70
[2]; read-out: inhibition % at 1 mM
  inhibition at 1000 µM: 85%
[2]; upon 10-fold dilution with excess of fresh GPI-protein substrate
  reversal of half-maximal inhibition: completely reversed
[3]
  effect on PLA2: not significantly affected
